Data: patent publication US20060110401A1, “Mixture of peptides from c and ns3 proteins of the hepatitis c virus and applications thereof” (priority 2002, published 2006)
Read-outs that look alike come from different tables or passages of the source. Residues, ends and D or L forms follow the SMILES beside them.

What was measured:
[1] = tested on: DRB5; assay: DRB5
[2] = tested on: DR7; assay: DR7
[3] = tested on: DP402; assay: DP402
[4] = tested on: DRB3; assay: DRB3
[5] = tested on: DP401; assay: DP401
[6] = target: HLA-DP401 (DPB1*0401) (Homo sapiens, UniProt P04440+P20036); assay: biochemical; type: binding; details: DP*0401; read-out: binds with good affinity to DP401
[7] = target: HLA-DP402 (DPB1*0402) (Homo sapiens, UniProt P04440+P20036, A65V/A84D/A85E/L207M); assay: biochemical; type: binding; details: DP*0402; read-out: binds with good affinity to DP402
[8] = tested on: DR3; assay: DR3
Excerpt: (§1) Table printed on a drawing sheet, Figure 2
Where the first naming reader finds the target: head: DR3

[9] = target: T1, HLA-DR4 (DRB1*0401) (Homo sapiens, UniProt P01903+P01911, A100K/A169T/F76Y/I96L/K127E/L162R/M171V/N62H/P40V/Q125Y/R42H/S133A/S149N/S66Y/V115G/V209L/W38E); assay: biochemical; type: binding; details: read-out: binds with good affinity to DR4
T1 construct: endogenous in cells; host or cells: homozygous EBV-transformed human B lymphocyte lines; immunopurified with antibody L243

[10] = target: T2, HLA-DR15 (DRB1*1501) (Homo sapiens, UniProt P01903+P01911); assay: biochemical; type: binding; details: DRB1*1501; read-out: binds with good affinity to DR15
T2 construct: endogenous in cells; host or cells: homozygous EBV-transformed human B lymphocyte lines; immunopurified with antibody L243

[11] = target: HLA-DR7 (DRB1*0701) (Homo sapiens, UniProt P01903+P01911, A100R/A102G/A103Q/D57E/D86V/E43K/F76Y/K127E/L162R/M171V/P40G/Q125H/Q99D/R33Q/R42Y/R54Q/S133A/S66F/T210M/V115G/Y107V/Y59L/Y89S); assay: biochemical; type: binding; details: read-out: binds with good affinity to DR7
[12] = target: HLA-DR11 (DRB1*1101) (Homo sapiens, UniProt P01903+P01911, A100R/A169T/A87E/I96F/K41T/L162R/M171V/P40S/Q125H/Q178H/Q39Y/Q99D/R42S/S66Y/T262R/V115G/W38E); assay: biochemical; type: binding; details: read-out: binds with good affinity to DR11
[13] = tested on: DR13; assay: DR13
Excerpt: as §1
Where the first naming reader finds the target: head: DR13

[14] = tested on: DR15; assay: DR15
[15] = tested on: DRB4; assay: DRB4
Excerpt: as §1
Where the first naming reader finds the target: head: DRB4

[16] = target: T3, HLA-DRB3 (DRB3*0101) (Homo sapiens, UniProt P01903+P79483); assay: HLA II/peptide binding assay, HLA-DRB3; details: read-out: binds with good affinity to DRB3
T3 construct: endogenous in cells; host or cells: homozygous EBV-transformed human B lymphocyte lines; immunopurified with antibody L243

[17] = target: T4, HLA-DR1 (DRB1*0101) (Homo sapiens, UniProt P01903+P01911, A100R/D57E/F55L/F60I/F76Y/I96L/L162R/M171V/P40L/Q125E/R42F/V115G/Y59C); assay: biochemical; type: binding; details: for IC50: DRB1*0101
T4 construct: endogenous in cells; host or cells: homozygous EBV-transformed human B lymphocyte lines; immunopurified with antibody L243

[18] = tested on: DR1; assay: DR1
[19] = tested on: DR4; assay: DR4
[20] = target: HLA-DR13 (DRB1*1301) (Homo sapiens, UniProt P01903+P01911, A100E/A169T/K41T/L162R/M171V/P40S/Q125H/Q178H/Q39Y/Q99D/R42S/S66N/T262R/W38E/Y61H); assay: biochemical; type: binding; details: read-out: binds with good affinity to DR13
[21] = target: T5, HLA-DRB4 (DRB4*0101) (Homo sapiens, UniProt P01903+P13762, G164S); assay: biochemical; type: binding; details: read-out: binds with good affinity to DRB4
T5 construct: endogenous in cells; host or cells: homozygous EBV-transformed human B lymphocyte lines; immunopurified with antibody L243

[22] = target: T6, HLA-DRB5 (DRB5*0101) (Homo sapiens, UniProt P01903+Q30154); assay: biochemical; type: binding; details: read-out: binds with good affinity to DRB5
T6 construct: endogenous in cells; host or cells: homozygous EBV-transformed human B lymphocyte lines; immunopurified with antibody L243

[23] = target: T7, HLA-DR3 (DRB1*0301) (Homo sapiens, UniProt P01903+P01911, A100K/A102G/A103R/A169T/F55Y/I96L/K41T/L162R/M171V/P40S/Q125H/Q178H/Q39Y/R42S/S66N/T106N/T262R/W38E/Y61H); assay: biochemical; type: binding; details: read-out: binds with good affinity to DR3
T7 construct: endogenous in cells; host or cells: homozygous EBV-transformed human B lymphocyte lines; immunopurified with antibody L243

[24] = tested on: T lymphocytes derived from PBMCs from patients chronically infected with HCV; type: cell-based, human; details: supernatant 48 h, —: not detected
[25] = read-out: binds with good affinity to DR1

Chain of HLA-DR11 (DRB1*1101) (P01903 26-254 limits assumed, other chains not shown): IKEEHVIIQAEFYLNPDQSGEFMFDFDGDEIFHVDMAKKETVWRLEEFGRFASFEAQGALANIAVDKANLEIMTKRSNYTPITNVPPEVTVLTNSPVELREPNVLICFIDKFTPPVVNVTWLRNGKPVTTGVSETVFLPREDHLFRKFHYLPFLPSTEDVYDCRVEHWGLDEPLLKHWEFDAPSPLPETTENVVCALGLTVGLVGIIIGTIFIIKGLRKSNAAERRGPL

Row | Compound | IC50 [1] | IC50 [2] | IC50 [3] | IC50 [4] | IC50 [5] | IC50 [6] | IC50 [7] | IC50 [8] | IC50 [9] | IC50 [10] | IC50 [11] | IC50 [12] | IC50 [13] | IC50 [14] | IC50 [15] | IC50 [16] | IC50 [17, 25] | IC50 [18] | IC50 [19] | IC50 [21] | other results
1 | CC(C)C[C@H](NC(=O)[C@H](CCCNC(=N)N)NC(=O)[C@@H]1CCCN1C(=O)CNC(=O)[C@H](CCCNC(=N)N)NC(=O)[C@H](CCCNC(=N)N)NC(=O)[C@@H]1CCCN1C(=O)[C@H](CC(C)C)NC(=O)[C@H](CC(C)C)NC(=O)[C@H](Cc1ccc(O)cc1)NC(=O)[C@@H](NC(=O)CNC(=O)CNC(=O)[C@@H](N)C(C)C)C(C)C)C(=O)NCC(=O)N[C@H](C(=O)N[C@@H](CCCNC(=N)N)C(=O)N[C@@H](C)C(=O)N[C@H](C(=O)N[C@@H](CCCNC(=N)N)C(=O)N[C@@H](CCCCN)C(=O)N[C@H](C(=O)N[C@@H](CO)C(=O)N[C@@H](CCC(=O)O)C(=O)N[C@@H](CCCNC(=N)N)C(=O)N[C@@H](CO)C(=O)N[C@@H](CCC(N)=O)C(=O)O)[C@@H](C)O)[C@@H](C)O)C(C)C [2C 31-57] | 3 nM | 500 nM | > 100000 nM | > 100000 nM | > 100000 nM | < 1000 nM | < 1000 nM | > 100000 nM |  |  |  |  |  |  |  |  |  |  |  |  | 
2 | CC[C@H](C)[C@H](NC(=O)[C@H](CC(N)=O)NC(=O)[C@@H]1CCCN1C(=O)[C@@H](N)CC(=O)O)C(=O)N[C@@H](CCCNC(=N)N)C(=O)N[C@H](C(=O)NCC(=O)N[C@H](C(=O)N[C@@H](CCCNC(=N)N)C(=O)N[C@H](C(=O)N[C@H](C(=O)N[C@H](C(=O)N[C@H](C(=O)NCC(=O)N[C@@H](CO)C(=O)N1CCC[C@H]1C(=O)N[C@H](C(=O)N[C@H](C(=O)N[C@@H](Cc1ccc(O)cc1)C(=O)N[C@@H](CO)C(=O)N[C@H](C(=O)N[C@@H](Cc1ccc(O)cc1)C(=O)NCC(=O)N[C@@H](CCCCN)C(=O)N[C@@H](Cc1ccccc1)C(=O)N[C@@H](CC(C)C)C(=O)N[C@@H](C)C(=O)N[C@@H](CC(=O)O)C(=O)NCC(=O)NCC(=O)O)[C@@H](C)O)[C@@H](C)O)[C@@H](C)CC)[C@@H](C)O)[C@@H](C)O)[C@@H](C)O)[C@@H](C)O)C(C)C)[C@@H](C)O [19N 1275-1304] (H-DPNIRTGVRTTTTGSPITYSTYGKFLADGG-OH; N-terminus and C-terminus assumed) | 1300 nM | 113 nM | 1820 nM | 150 nM | 548 nM | < 1000 nM |  | > 100000 nM | < 1000 nM | < 1000 nM | < 1000 nM | < 1000 nM | > 100000 nM | 550 nM | 3500 nM | < 1000 nM | < 1000 nM | 150 nM | 500 nM |  | 
3 | CC[C@H](C)[C@H](NC(=O)[C@@H](NC(=O)[C@H](Cc1ccccc1)NC(=O)[C@@H](NC(=O)[C@@H]1CCCN1C(=O)[C@H](CC(=O)O)NC(=O)[C@H](CC(C)C)NC(=O)[C@H](CO)NC(=O)[C@H](Cc1ccccc1)NC(=O)[C@H](CC(=O)O)NC(=O)[C@@H](NC(=O)[C@@H](NC(=O)[C@H](CCC(N)=O)NC(=O)[C@@H](NC(=O)[C@@H](NC(=O)[C@H](C)NC(=O)[C@@H](N)[C@@H](C)O)C(C)C)[C@@H](C)O)[C@@H](C)O)C(C)C)[C@@H](C)O)[C@@H](C)O)C(=O)N[C@@H](CCC(=O)O)C(=O)N[C@H](C(=O)N[C@H](C(=O)N[C@H](C(=O)N[C@@H](CC(C)C)C(=O)N1CCC[C@H]1C(=O)N[C@@H](CCC(N)=O)C(=O)N[C@@H](CC(=O)O)C(=O)N[C@@H](C)C(=O)O)[C@@H](C)O)[C@@H](C)CC)[C@@H](C)O [26N 1456-1481] |  | 20 nM |  | 40 nM |  |  |  |  | < 1000 nM | < 1000 nM | < 1000 nM | < 1000 nM | 300 nM |  |  | < 1000 nM | < 1000 nM | 2 nM | 8 nM | < 1000 nM | IC50 [20]: < 1000 nM; IC50 [22]: < 1000 nM; IC50 [23]: < 1000 nM
4 | CSCC[C@H](NC(=O)[C@H](Cc1ccc(O)cc1)NC(=O)[C@H](C)NC(=O)[C@H](CCCNC(=N)N)NC(=O)[C@H](CC(C)C)NC(=O)[C@H](CCCNC(=N)N)NC(=O)[C@@H](NC(=O)[C@@H](NC(=O)[C@@H](NC(=O)[C@H](CCC(=O)O)NC(=O)[C@H](C)NC(=O)[C@@H]1CCCN1C(=O)[C@@H](NC(=O)[C@H](CC(C)C)NC(=O)[C@H](CCC(=O)O)NC(=O)[C@H](Cc1ccc(O)cc1)NC(=O)[C@H](Cc1c[nH]c2ccccc12)NC(=O)[C@H](C)NC(=O)[C@H](C)NC(=O)CN)[C@@H](C)O)[C@@H](C)O)[C@@H](C)O)C(C)C)C(=O)N[C@@H](CC(N)=O)C(=O)N[C@H](C(=O)N1CCC[C@H]1C(=O)NCC(=O)N[C@@H](CC(C)C)C(=O)N1CCC[C@H]1C(=O)N[C@H](C(=O)N[C@@H](C)C(=O)N[C@@H](CCC(N)=O)C(=O)N[C@@H](CC(=O)O)C(=O)O)C(C)C)[C@@H](C)O [28N 1524-1553] | 20 nM | 5 nM |  |  |  |  | < 1000 nM |  | < 1000 nM | < 1000 nM | < 1000 nM | < 1000 nM | 10000 nM | 1 nM | 30 nM | < 1000 nM | < 1000 nM |  |  | < 1000 nM | IC50 ([17]; competition with biotinylated tracer HA 306-318, read-out: IC50, binding to HLA-DR1): 2 nM; affinity for HLA-DR1 (in words) ([17]; legend of FIG. 4): high affinity; IC50 [22]: < 1000 nM; IL2 ([24]; patient 067): — 76 pg/ml; IL10 ([24]; patient 067): 86 pg/mL; IL10 ([24]; patient 078): 21 pg/mL; IL4 ([24]; patient 093): — 11 pg/ml; IL10 ([24]; patient 829): 67 pg/mL
